Measurements: ChEMBL document CHEMBL1201862, “PubChem BioAssay data set” (2004)
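Step 1: Grow cells in 96-well plates. Step 2: Expose to compound for 48 hours at 5 concentrations. Step 3: Interpolate endpoints linearly; if unreached, use highest concentration. The concentration for 50% growth inhibition is given as GI50.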 Active and inactive are the calls of the source. Rule as the data show it: active = GI50 up to about 1.1 µM and inactive = higher.

Experiments:
Test in all cases: NCI-60 cell line screen, 48 h
[1] = system: UO-31
[2] = system: M14
[3] = system: A549
[4] = system: UACC-62
[5] = system: SNB-19
[6] = system: NCI-H460
[7] = system: PC-3
[8] = system: HCT-116
[9] = system: SW-620
[10] = system: NCI-H23
[11] = system: HCC 2998
[12] = system: Hs-578T
[13] = system: BT-549
[14] = system: HL-60
[15] = system: COLO 205
[16] = system: SF-539
[17] = system: OVCAR-3
[18] = system: MDA-MB-231
[19] = system: HOP-92
[20] = system: SNB-75

Compound | GI50 [1] | GI50 [2] | GI50 [3] | GI50 [4] | GI50 [5] | GI50 [6] | GI50 [7] | GI50 [8] | GI50 [9] | GI50 [10] | GI50 [11] | GI50 [12] | GI50 [13] | GI50 [14] | GI50 [15] | GI50 [16] | GI50 [17] | GI50 [18] | GI50 [19] | GI50 [20]
CCCCCCc1cc2cc(C(=O)Nc3ccccc3F)c(=N)oc2cc1O | 4.27 µM (inactive) | 10.2 µM (inactive) | 6.97 µM (inactive) | 6.55 µM (inactive) | 8.83 µM (inactive) | 7.62 µM (inactive) | 11.2 µM (inactive) | 5.7 µM (inactive) | 12.6 µM (inactive) | 3.18 µM (inactive) | 18.7 µM (inactive) | 11.4 µM (inactive) | 5.36 µM (inactive) | 6.24 µM (inactive) | 19.3 µM (inactive) | 12.6 µM (inactive) | 6.38 µM (inactive) |  |  | 
C=CCC1(C#N)C(=S)NC2=C(C(=O)CC(C)(C)C2)C1c1ccccc1 (stereo not drawn) | 36.4 µM (inactive) | 59.8 µM (inactive) | 33.8 µM (inactive) |  | 31 µM (inactive) |  | 32.2 µM (inactive) | 59.4 µM (inactive) | > 100 µM (inactive) | 39.9 µM (inactive) |  |  | 66.7 µM (inactive) | > 100 µM (inactive) | > 100 µM (inactive) | 77.8 µM (inactive) |  | 36.7 µM (inactive) | 35.1 µM (inactive) | 27 µM (inactive)
CCCCCCCCCCCCCCCCNC(=O)/C(O)=C/C(=O)c1ccc(C)cc1 | > 10 µM (inactive) | > 10 µM (inactive) |  |  |  | > 10 µM (inactive) | 3.32 µM (inactive) |  | > 10 µM (inactive) | > 10 µM (inactive) | > 10 µM (inactive) | > 10 µM (inactive) |  | 8.05 µM (inactive) | > 10 µM (inactive) | > 10 µM (inactive) | > 10 µM (inactive) | > 10 µM (inactive) |  | > 10 µM (inactive)
N#Cc1c(-c2ccc(Cl)cc2)cc(-c2ccc(Nc3ccnc4cc(C(F)(F)F)ccc34)cc2)nc1N | 15.7 µM (inactive) | 19.5 µM (inactive) | 83.4 µM (inactive) | 22.3 µM (inactive) | 16.9 µM (inactive) | 32.8 µM (inactive) | 32.9 µM (inactive) | 10.6 µM (inactive) | 32.3 µM (inactive) | 57.5 µM (inactive) | 64.3 µM (inactive) |  | 63 µM (inactive) |  | 29.4 µM (inactive) | 18.5 µM (inactive) |  | 28.7 µM (inactive) |  | 23 µM (inactive)
C=C(CN(CC)CC)C1(c2ccccc2)CC2(CCCC2)C(=O)O1 (stereo not drawn) | > 100 µM (inactive) | 45.5 µM (inactive) | > 100 µM (inactive) | > 100 µM (inactive) | > 100 µM (inactive) | 68.7 µM (inactive) | 67 µM (inactive) | 38.3 µM (inactive) | > 100 µM (inactive) | 33 µM (inactive) | > 100 µM (inactive) | > 100 µM (inactive) |  | 40.6 µM (inactive) | 55 µM (inactive) | > 100 µM (inactive) | 82 µM (inactive) | > 100 µM (inactive) | 28.6 µM (inactive) | 33 µM (inactive)
COc1cc(C2c3cc4c(cc3[C@H](NC(=O)c3cccs3)C3COC(=O)[C@H]23)OCO4)cc(OC)c1OC (stereo partly drawn) | 0.0811 µM (active) | < 0.0197 µM (active) | < 0.019 µM (active) | < 0.0128 µM (active) | < 0.018 µM (active) | 0.0172 µM (active) | < 0.01 µM (active) | < 0.0131 µM (active) | < 0.016 µM (active) | < 0.0143 µM (active) | < 0.0181 µM (active) |  | < 0.01 µM (active) | < 0.01 µM (active) | 0.0109 µM (active) | < 0.01 µM (active) | 0.0361 µM (active) | < 0.01 µM (active) | 0.0198 µM (active) | < 0.0152 µM (active)
COc1cc(/C=C2/SC(c3ccccc3)N(c3cccc([N+](=O)[O-])c3)C2=O)cc(OC)c1OC (stereo not drawn) | > 100 µM (inactive) | > 100 µM (inactive) | > 100 µM (inactive) | 95.3 µM (inactive) | > 100 µM (inactive) | > 100 µM (inactive) |  | 61.4 µM (inactive) | 74.5 µM (inactive) | > 100 µM (inactive) | > 100 µM (inactive) | > 100 µM (inactive) | > 100 µM (inactive) | 60.8 µM (inactive) | > 100 µM (inactive) | > 100 µM (inactive) | > 100 µM (inactive) | > 100 µM (inactive) | > 100 µM (inactive) | 
OC(c1cccs1)c1cc2ccccc2s1 (stereo not drawn) | > 10 µM (inactive) | > 10 µM (inactive) | > 10 µM (inactive) | > 10 µM (inactive) | > 10 µM (inactive) | > 10 µM (inactive) | > 10 µM (inactive) | > 10 µM (inactive) | > 10 µM (inactive) | > 10 µM (inactive) | > 10 µM (inactive) | > 10 µM (inactive) |  | > 10 µM (inactive) | > 10 µM (inactive) | > 10 µM (inactive) | > 10 µM (inactive) | > 10 µM (inactive) | > 10 µM (inactive) | > 10 µM (inactive)
C/C(CC(O)(C(F)(F)F)C(F)(F)F)=N\NC(N)=S | > 10 µM (inactive) | > 10 µM (inactive) | > 10 µM (inactive) | > 10 µM (inactive) | > 10 µM (inactive) | > 10 µM (inactive) | > 10 µM (inactive) | > 10 µM (inactive) | > 10 µM (inactive) | > 10 µM (inactive) | > 10 µM (inactive) | > 10 µM (inactive) |  | > 10 µM (inactive) | > 10 µM (inactive) | > 10 µM (inactive) | > 10 µM (inactive) | > 10 µM (inactive) | > 10 µM (inactive) | > 10 µM (inactive)
O=C1NC2ON=C(c3ccccc3)C2C2ON=C(c3ccccc3)N12 (stereo not drawn) | > 100 µM (inactive) | > 100 µM (inactive) | > 100 µM (inactive) | > 100 µM (inactive) | 92 µM (inactive) | > 100 µM (inactive) | 72.4 µM (inactive) |  |  | > 100 µM (inactive) | > 100 µM (inactive) | 63.2 µM (inactive) | > 100 µM (inactive) |  | > 100 µM (inactive) | > 100 µM (inactive) | > 100 µM (inactive) | > 100 µM (inactive) |  | > 100 µM (inactive)
Cc1cc2c(cc1-c1cc3c(cc1C)C(C(C)C)=C(O)C(=O)/C3=C\Nc1ccccn1)/C(=C/Nc1ccccn1)C(=O)C(O)=C2C(C)C |  | 87.5 µM (inactive) | 31.3 µM (inactive) | 65 µM (inactive) | 52.6 µM (inactive) | 43.2 µM (inactive) | 41.7 µM (inactive) | 64.7 µM (inactive) | 48 µM (inactive) | 46.9 µM (inactive) | 22.5 µM (inactive) | 32 µM (inactive) |  | 27.4 µM (inactive) | > 100 µM (inactive) | 85.1 µM (inactive) | 34.3 µM (inactive) | 94.6 µM (inactive) | > 100 µM (inactive) | 63.4 µM (inactive)
COc1cc(N(Cc2ccc3oc(=O)c(-c4ccccc4)nc3c2)Cc2ccc3oc(=O)c(-c4ccccc4)nc3c2)cc(OC)c1OC | > 10 µM (inactive) | > 10 µM (inactive) | > 10 µM (inactive) | > 10 µM (inactive) | > 10 µM (inactive) | > 10 µM (inactive) | > 10 µM (inactive) | > 10 µM (inactive) | > 10 µM (inactive) | > 10 µM (inactive) | > 10 µM (inactive) | > 10 µM (inactive) |  | > 10 µM (inactive) | > 10 µM (inactive) | > 10 µM (inactive) | > 10 µM (inactive) | > 10 µM (inactive) | > 10 µM (inactive) | > 10 µM (inactive)
COC(=O)/C=C(\CC(=O)OC)n1nnnc1[C@@H]1C[C@H](COC(c2ccccc2)(c2ccccc2)c2ccccc2)[C@H]2OC(C)(C)O[C@H]21 | > 100 µM (inactive) | > 100 µM (inactive) | > 100 µM (inactive) |  | > 100 µM (inactive) |  | > 100 µM (inactive) | 89.1 µM (inactive) | > 100 µM (inactive) |  |  | 68.4 µM (inactive) |  | > 100 µM (inactive) | 39.3 µM (inactive) | > 100 µM (inactive) | > 100 µM (inactive) | > 100 µM (inactive) | > 100 µM (inactive) | 37.2 µM (inactive)
O=S1(=O)OCCOS(=O)(=O)C1S(=O)(=O)c1cccc2ccccc12 | > 100 µM (inactive) | > 100 µM (inactive) | > 100 µM (inactive) |  | > 10 µM (inactive) | 54.6 µM (inactive) | 42.3 µM (inactive) | 24 µM (inactive) | 70.5 µM (inactive) | > 100 µM (inactive) | > 100 µM (inactive) |  | > 100 µM (inactive) | 68.5 µM (inactive) | > 100 µM (inactive) |  | > 100 µM (inactive) | > 100 µM (inactive) | > 100 µM (inactive) | 
CCc1cc2c(c3c1CCC3=O)CC1(Cc3ccc(C)cc3C1)C2 (stereo not drawn) | 0.159 µM (active) | > 100 µM (inactive) | 18.2 µM (inactive) | 22.2 µM (inactive) |  |  | 23 µM (inactive) | 17.6 µM (inactive) |  | > 100 µM (inactive) | 33.9 µM (inactive) | 19.7 µM (inactive) |  | 21.7 µM (inactive) | 27.8 µM (inactive) | > 100 µM (inactive) | 37.3 µM (inactive) | 36.6 µM (inactive) | 22.7 µM (inactive) | 
O=C(c1cccs1)N1CCc2ccccc2C1 | > 100 µM (inactive) | > 100 µM (inactive) | > 100 µM (inactive) | > 100 µM (inactive) | > 100 µM (inactive) | > 100 µM (inactive) | > 100 µM (inactive) | 38.2 µM (inactive) | > 100 µM (inactive) | > 100 µM (inactive) | > 100 µM (inactive) | 85.5 µM (inactive) |  | 30.7 µM (inactive) | > 100 µM (inactive) | > 100 µM (inactive) | > 100 µM (inactive) | > 100 µM (inactive) | 26.6 µM (inactive) | 
